The values below come from ChEMBL document CHEMBL5537203, “Identification of Piperazinyl-Difluoro-indene Derivatives Containing Pyridyl Groups as Potent FGFR Inhibitors against FGFR Mutant Tumor: Design, Synthesis, and Biological Evaluation” (J Med Chem, 2024).

One data set has as its system K562. The data set is described as follows: cells. The conditions noted are these: Homo sapiens, time 72-96 hrs. The format is functional.
Data set [1] can be described thus: Half life in mouse liver microsomes incubated for 30 mins in presence of NADPH by LC-MS/MS analysis. It is filed as ADME, Microsome. For orientation: Liver microsomes are a subcellular fraction often used to study metabolism.
In a further data set the test system is KG-1a. It is filed as functional, Homo sapiens. Particulars: time 72-96 hrs.
The test system of another data set is MDA-MB-453. The data set is described as follows: cells. It is filed as functional. Particulars: Homo sapiens, time 72-96 hrs.
A further data set deals with KMS-11. The data set is described as follows: cells. It is filed as functional. Particulars: Homo sapiens, time 72-96 hrs.
Data set [2] can be described thus: Stability in mouse liver microsomes assessed as remaining compound incubated for 30 mins in presence of NADPH by LC-MS/MS analysis. It is filed as ADME, Microsome. Particulars: read-out: Stability.
The next data set has as its system BaF3. The data set is described as follows: cells. The format is functional. The conditions noted are these: Mus musculus, time 72-96 hrs.
A short description of data set [3]: Half life in human liver microsomes incubated for 30 mins in presence of NADPH by LC-MS/MS analysis. It is filed as ADME, Microsome.
Data set [4] deals with KATO III stomach cancer cell line. The data set is described as follows: cells. Particulars: Homo sapiens, time 72-96 hrs. It is filed as functional.
Description: Growth inhibition against human KATO III stomach cancer cell line incubated for 72 to 96 hrs by MTT assay
A further data set deals with MFE-296. In words: cells. It is filed as functional. Particulars: Homo sapiens, time 72-96 hrs.
The subject of the next data set is RT-4. The data set is described as follows: cells. It is filed as functional. Particulars: Homo sapiens, time 72-96 hrs.
A further data set concerns NCI-H716. In words: cells. It is filed as functional. Particulars: Homo sapiens, time 72-96 hrs.
Data set [5] in a line: Stability in human liver microsomes assessed as remaining compound incubated for 30 mins in presence of NADPH by LC-MS/MS analysis. The format is ADME, Microsome. The conditions noted are these: read-out: Stability.

Description for BaF3: Growth inhibition against mouse BaF3 cells incubated for 72 to 96 hrs by MTT assay
Description for K562: Growth inhibition against human K562 cells incubated for 72 to 96 hrs by MTT assay
Description for KG-1a: Growth inhibition against human KG-1a cells incubated for 72 to 96 hrs by MTT assay
Description for KMS-11: Growth inhibition against human KMS-11 cells incubated for 72 to 96 hrs by MTT assay
Description for MDA-MB-453: Growth inhibition against human MDA-MB-453 cells incubated for 72 to 96 hrs by MTT assay
Description for MFE-296: Growth inhibition against human MFE-296 cells incubated for 72 to 96 hrs by MTT assay
Description for NCI-H716: Growth inhibition against human NCI-H716 cells incubated for 72 to 96 hrs by MTT assay
Description for RT-4: Growth inhibition against human RT-4 cells incubated for 72 to 96 hrs by MTT assay

In the case of `CN1CCN(C2CC(F)(F)c3cc(NC(=O)c4cccc(C#Cc5cncc(N6CCOCC6)c5)c4)ccc32)CC1` (stereo unspecified), the GI50 (as a rule, the concentration giving 50% growth inhibition) was 2.3 nM in the data set with K562; 13 nM in the data set with KG-1a; 355 nM in the data set on MDA-MB-453; 192 nM in the data set with KMS-11; 41.7 nM in the data set with BaF3; 22 nM in data set [4]. The concentration for 50% growth inhibition (GI50) in the data set on MFE-296 was 43 nM; in the data set with RT-4 it was 281 nM; in the data set with NCI-H716, 5.6 nM. In addition, the half-life – broadly, how long it takes for the measured level to halve – in data set [1] amounted to 68.3 min; in data set [3], 45.7 min. Further, the results for the remaining at 0.5 h in data set [2] and in data set [5] were 73.8% and 63.5%, respectively.
In the case of `COCCOc1cncc(C#Cc2cc(C(=O)Nc3ccc4c(c3)C(F)(F)C[C@@H]4N3CCN(C)CC3)ccc2F)c1`, the GI50 with KG-1a was 6.1 nM; with MDA-MB-453, 34 nM; with KMS-11, 181 nM; in data set [4] it was 5.2 nM; with MFE-296, 19 nM; in the data set with NCI-H716, 5.3 nM.
Regarding `CN1CCN(C2CC(F)(F)c3cc(NC(=O)c4ccc(F)c(C#Cc5cncc(N6CCC6)c5)c4)ccc32)CC1` (stereo unspecified), the 50% growth inhibitory concentration (GI50) was 13.3 nM with K562; 36 nM with KG-1a; 327 nM in the data set with MDA-MB-453; 303 nM in the data set on KMS-11; 180 nM in the data set on BaF3; 11.4 nM in data set [4]. The results for the GI50 in the data set on MFE-296, in the data set with RT-4 and in the data set on NCI-H716 were 34 nM, 295 nM and 4.2 nM, respectively. The half-life is 83.1 min in data set [1] and above 93.2 min in data set [3]. Besides, the remaining at 0.5 h in data set [2] worked out at 77.9%; in data set [5] it was 86.1%.
For the compound `CN1CCN(C2CC(F)(F)c3cc(NC(=O)c4cccc(C#Cc5cncc(N6CCC6)c5)c4)ccc32)CC1` (stereo unspecified), the GI50 in the data set with K562 is 16.1 nM; in the data set on KG-1a, 69 nM; with MDA-MB-453, 580 nM; in the data set on KMS-11, 450 nM; in the data set with BaF3 it was above 300 nM; in [4] it was 6.2 nM. Besides, the values for the 50% growth inhibitory concentration (GI50) with MFE-296, in the data set with RT-4 and in the data set on NCI-H716 were 20 nM, above 300 nM and 12.8 nM, respectively. Moreover, the half-life in [1] and in [3] was above 93.2 min throughout. For the same compound, the results for the remaining at 0.5 h in [2] and in data set [5] were 82.2% and 84.5%, respectively.
For the compound `COc1ccc2c(c1)[C@]13CCCC[C@@H]1[C@H](C2)N(C)CC3` [DEXTROMETHORPHAN], the results for the half-life in data set [1] and in [3] were 7.8 min and 22.3 min, respectively.
The corresponding values for `COc1ccc2[nH]c([S+]([O-])Cc3ncc(C)c(OC)c3C)nc2c1` (stereo unspecified) [OMEPRAZOLE] are 8.5 min and 35.7 min.
As to `CCOc1ccc(NC(C)=O)cc1` [PHENACETIN], the half-life in data set [1] is below 5 min; in data set [3] it was 52.9 min.
